Source: patent US8940742B2, “Heterocyclic compounds and uses thereof” (Infinity Pharmaceuticals, Inc., priority 2012, dated 2015)

Legend:
Raw264.7 p110 γ = biological target: T1, Raw264.7 p110 γ (Mus musculus, UniProt Q9JHG7); assay: Raw264.7 p110 γ cellular assay (phospho-AKT); format: cell-based; details: serum-starved RAW264.7 cells stimulated with C5a
T1 construct: reduction of phospho-AKT in stimulated RAW 264.7 cells; endogenous in cells; host or cells: RAW264.7 macrophages
Description: (b) PI3K-γ Selective Assay
Briefly, serum-starved PAW264.7 cells are stimulated with a known GPCR agonist C5a. […] Cells can be treated with test compounds prior to, simultaneously with, or subsequent to the stimulation by C5a. RAW 264.7 cells respond to the complement component fragment C5a through activation of the C5a receptor, and the C5a receptor activates macrophages and induces cell migration.

PI3K δ = biological target: T2, PI3K δ (Homo sapiens, UniProt O00329); assay: PI3-Kinase Promega ADP-Glo Max assay; format: biochemical; details: 20 nM kinase, 3 mM ATP, 500 uM diC8-PtdInsP
T2 construct: purchased Millipore
Procedure, shortened: (§1)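 Human class I PI3K (20 nM α or δ, 40 nM β) pre-incubated 15 min with compound in HEPES pH 7.4 buffer with MgCl2, then reacted 2 h at room temperature with 3 mM ATP and 500 uM diC8-PtdInsP. ADP measured by ADP-Glo Max luminescence; % inhibition fitted to 4-parameter logistic for IC50.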

PI3K α = biological target: T3, PI3K α (Homo sapiens, UniProt P42336); assay: PI3-Kinase Promega ADP-Glo Max assay; format: biochemical; details: 20 nM kinase, 3 mM ATP, 500 uM diC8-PtdInsP
T3 construct: purchased Millipore
Procedure, shortened: as §1

PI3K β = biological target: T4, PI3K β (Homo sapiens, UniProt P42338); assay: PI3-Kinase Promega ADP-Glo Max assay; format: biochemical; details: 40 nM kinase, 3 mM ATP, 500 uM diC8-PtdInsP
T4 construct: purchased Millipore
Procedure, shortened: as §1

PI3K γ = biological target: T5, PI3K γ (Homo sapiens, UniProt P48736); assay: PI3-Kinase Promega ADP-Glo Max assay; format: biochemical; details: 40 nM kinase, 3 mM ATP, 500 uM diC8-PtdInsP
T5 construct: purchased Millipore
Procedure, shortened: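 Human class I PI3K reactions ran 2 hours at room temperature, followed by stop solution (40 min) and detection mix (1 hour) before luminescence reading.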

RAJI p110 δ = RAJI p110 δ (Homo sapiens, UniProt O00329); assay: RAJI p110 δ cellular assay (phospho-AKT);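 note: potency based on lowered phosphorylated AKT in RAJI cells, as a readout of PI3K-δ dependent B-cell receptor signaling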
Chain of RAJI p110 δ (O00329 whole entry): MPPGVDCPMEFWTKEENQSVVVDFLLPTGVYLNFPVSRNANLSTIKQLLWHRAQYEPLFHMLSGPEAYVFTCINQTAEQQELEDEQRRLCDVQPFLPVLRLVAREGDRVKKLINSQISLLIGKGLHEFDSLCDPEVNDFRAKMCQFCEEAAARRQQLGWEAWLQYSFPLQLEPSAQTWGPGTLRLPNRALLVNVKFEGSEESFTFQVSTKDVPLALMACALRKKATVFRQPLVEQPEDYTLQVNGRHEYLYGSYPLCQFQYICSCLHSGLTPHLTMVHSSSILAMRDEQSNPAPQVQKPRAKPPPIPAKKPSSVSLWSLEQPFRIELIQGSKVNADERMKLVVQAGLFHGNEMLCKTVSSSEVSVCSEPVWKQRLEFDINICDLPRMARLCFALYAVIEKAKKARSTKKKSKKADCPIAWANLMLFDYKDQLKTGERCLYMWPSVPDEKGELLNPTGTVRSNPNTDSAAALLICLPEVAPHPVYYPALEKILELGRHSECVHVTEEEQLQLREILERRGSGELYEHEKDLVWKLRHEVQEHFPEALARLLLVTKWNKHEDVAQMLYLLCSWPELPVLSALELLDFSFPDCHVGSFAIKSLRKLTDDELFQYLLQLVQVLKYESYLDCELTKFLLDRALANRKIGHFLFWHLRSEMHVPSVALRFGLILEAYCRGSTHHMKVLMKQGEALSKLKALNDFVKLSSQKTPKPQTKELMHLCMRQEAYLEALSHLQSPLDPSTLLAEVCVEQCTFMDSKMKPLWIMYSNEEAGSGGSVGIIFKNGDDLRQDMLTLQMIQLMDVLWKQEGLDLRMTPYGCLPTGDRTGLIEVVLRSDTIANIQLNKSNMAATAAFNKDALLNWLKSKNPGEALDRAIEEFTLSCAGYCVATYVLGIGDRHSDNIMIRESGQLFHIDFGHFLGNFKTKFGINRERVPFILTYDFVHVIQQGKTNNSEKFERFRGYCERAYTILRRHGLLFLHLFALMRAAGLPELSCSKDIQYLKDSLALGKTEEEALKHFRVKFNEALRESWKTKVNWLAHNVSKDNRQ
Chain of RAJI p110 δ (P27986 whole entry partner): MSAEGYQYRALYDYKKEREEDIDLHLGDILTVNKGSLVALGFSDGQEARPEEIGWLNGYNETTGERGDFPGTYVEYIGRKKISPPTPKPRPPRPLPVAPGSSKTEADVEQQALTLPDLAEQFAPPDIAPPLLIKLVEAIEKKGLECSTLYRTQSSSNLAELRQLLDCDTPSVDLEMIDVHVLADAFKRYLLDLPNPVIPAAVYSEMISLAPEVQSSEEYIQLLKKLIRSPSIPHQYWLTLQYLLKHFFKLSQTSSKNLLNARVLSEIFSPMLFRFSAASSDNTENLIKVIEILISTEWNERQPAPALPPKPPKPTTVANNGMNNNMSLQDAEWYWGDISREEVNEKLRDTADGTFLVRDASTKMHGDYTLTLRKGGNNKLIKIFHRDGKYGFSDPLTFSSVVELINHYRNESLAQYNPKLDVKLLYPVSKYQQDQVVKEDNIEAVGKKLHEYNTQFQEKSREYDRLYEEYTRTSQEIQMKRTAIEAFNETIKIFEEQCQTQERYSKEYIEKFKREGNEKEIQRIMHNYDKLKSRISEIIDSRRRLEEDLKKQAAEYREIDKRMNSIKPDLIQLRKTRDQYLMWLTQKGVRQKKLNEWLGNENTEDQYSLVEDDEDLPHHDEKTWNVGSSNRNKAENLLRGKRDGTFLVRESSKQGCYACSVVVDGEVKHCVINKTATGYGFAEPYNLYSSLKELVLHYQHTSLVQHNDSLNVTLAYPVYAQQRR
Description: (a) PI3K-δ Selective Assay
Reduction of phospho-AKT is indicative of compounds that may inhibit B-cell proliferation and function in certain diseases.

T5 sequence (P48736 whole entry): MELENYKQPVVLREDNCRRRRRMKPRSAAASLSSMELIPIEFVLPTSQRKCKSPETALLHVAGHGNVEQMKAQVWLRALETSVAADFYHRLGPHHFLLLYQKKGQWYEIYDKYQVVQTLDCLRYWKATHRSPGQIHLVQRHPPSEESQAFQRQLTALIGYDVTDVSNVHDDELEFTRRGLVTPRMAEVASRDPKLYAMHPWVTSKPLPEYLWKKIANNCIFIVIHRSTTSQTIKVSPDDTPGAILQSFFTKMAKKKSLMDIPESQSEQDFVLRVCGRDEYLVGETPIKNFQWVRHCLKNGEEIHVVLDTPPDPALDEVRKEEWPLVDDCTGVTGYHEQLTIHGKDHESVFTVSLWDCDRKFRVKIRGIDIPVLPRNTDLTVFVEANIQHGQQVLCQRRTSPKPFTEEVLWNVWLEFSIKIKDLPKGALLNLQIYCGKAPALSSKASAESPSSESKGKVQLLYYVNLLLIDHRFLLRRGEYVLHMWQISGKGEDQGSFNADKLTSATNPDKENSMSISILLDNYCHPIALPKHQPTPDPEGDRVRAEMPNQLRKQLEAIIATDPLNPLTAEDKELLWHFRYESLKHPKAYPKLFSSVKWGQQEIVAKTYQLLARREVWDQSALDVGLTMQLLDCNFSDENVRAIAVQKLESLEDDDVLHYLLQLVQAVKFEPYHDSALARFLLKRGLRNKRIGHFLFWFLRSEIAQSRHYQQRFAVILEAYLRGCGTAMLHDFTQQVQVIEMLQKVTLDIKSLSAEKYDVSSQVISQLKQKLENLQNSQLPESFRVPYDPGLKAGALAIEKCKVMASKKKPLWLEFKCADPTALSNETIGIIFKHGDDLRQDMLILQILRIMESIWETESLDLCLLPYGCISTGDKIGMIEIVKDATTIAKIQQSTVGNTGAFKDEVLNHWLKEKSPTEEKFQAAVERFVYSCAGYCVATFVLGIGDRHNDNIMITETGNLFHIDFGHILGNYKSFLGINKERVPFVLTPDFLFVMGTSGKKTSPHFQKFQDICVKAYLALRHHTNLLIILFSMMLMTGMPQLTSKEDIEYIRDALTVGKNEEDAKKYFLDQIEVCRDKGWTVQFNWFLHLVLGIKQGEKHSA
T4 sequence (P42338 whole entry): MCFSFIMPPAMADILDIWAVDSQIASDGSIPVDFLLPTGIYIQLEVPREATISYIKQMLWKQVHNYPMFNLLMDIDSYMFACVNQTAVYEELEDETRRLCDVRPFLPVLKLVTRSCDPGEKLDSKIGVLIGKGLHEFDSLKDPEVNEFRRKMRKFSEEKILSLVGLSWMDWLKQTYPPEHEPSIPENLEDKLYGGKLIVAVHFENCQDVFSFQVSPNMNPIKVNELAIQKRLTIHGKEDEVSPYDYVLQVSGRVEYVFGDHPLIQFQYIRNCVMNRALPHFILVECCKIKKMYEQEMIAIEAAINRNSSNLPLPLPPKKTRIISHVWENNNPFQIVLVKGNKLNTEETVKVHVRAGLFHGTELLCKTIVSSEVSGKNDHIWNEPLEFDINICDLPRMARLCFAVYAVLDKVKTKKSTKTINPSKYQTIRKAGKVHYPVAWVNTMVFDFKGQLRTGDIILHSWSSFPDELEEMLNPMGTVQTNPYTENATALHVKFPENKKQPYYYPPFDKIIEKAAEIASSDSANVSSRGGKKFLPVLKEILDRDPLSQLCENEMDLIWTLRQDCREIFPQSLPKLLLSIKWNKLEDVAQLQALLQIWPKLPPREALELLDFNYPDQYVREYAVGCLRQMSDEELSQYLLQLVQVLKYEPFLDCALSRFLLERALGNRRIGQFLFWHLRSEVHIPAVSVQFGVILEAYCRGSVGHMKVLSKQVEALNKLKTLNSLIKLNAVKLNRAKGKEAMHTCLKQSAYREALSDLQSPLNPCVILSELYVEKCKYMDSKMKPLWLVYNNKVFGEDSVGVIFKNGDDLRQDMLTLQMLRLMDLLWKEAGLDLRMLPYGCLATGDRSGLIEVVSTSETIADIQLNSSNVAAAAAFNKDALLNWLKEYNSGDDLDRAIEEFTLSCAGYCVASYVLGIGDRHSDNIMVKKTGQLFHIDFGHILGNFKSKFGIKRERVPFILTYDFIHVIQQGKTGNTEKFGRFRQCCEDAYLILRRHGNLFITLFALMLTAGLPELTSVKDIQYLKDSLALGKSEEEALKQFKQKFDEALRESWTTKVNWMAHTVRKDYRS
T4 sequence (P27986 whole entry partner): as the sequence (P27986 whole entry partner) above
T2 sequence (O00329 whole entry): as the sequence (O00329 whole entry) above
T2 sequence (P27986 whole entry partner): as the sequence (P27986 whole entry partner) above

SMILES | IC50 (Raw264.7 p110 γ) [nM] | IC50 (PI3K δ) [nM] | IC50 (PI3K α) [nM] | IC50 (PI3K β) [nM] | IC50 (PI3K γ) [nM] | IC50 (RAJI p110 δ) [nM]
C[C@H](NC(=O)c1nc(-c2cccc(S(=O)(=O)NC3CC3)c2)cnc1N)c1cc2cccc(Cl)c2c(=O)n1-c1ccccc1 [Compound 96] | < 100 | 1000 to 10000 | > 10000 | 1000 to 10000 | 1000 to 10000 | < 100
C[C@H](NC(=O)c1nccnc1N)c1cc2cccc(-c3cc[nH]n3)c2c(=O)n1-c1ccccc1 [Compound 59] | 1000 to 10000 | 100 to 1000 | > 10000 | > 10000 | 1000 to 10000 | < 100
C[C@H](NC(=O)c1cnc2cccnn12)c1cc2cccc(Cl)c2c(=O)n1-c1ccc(F)cc1 [Compound 20] | 100 to 1000 | 1000 to 10000 | 1000 to 10000 | 1000 to 10000 | 1000 to 10000 | < 100
CNS(=O)(=O)c1cccc(-c2cnc(N)c(C(=O)N[C@@H](C)c3cc4cccc(Cl)c4c(=O)n3-c3ccccc3)n2)c1 [Compound 83] | < 100 | 1000 to 10000 | 1000 to 10000 | 100 to 1000 | 100 to 1000 | < 100
CC(C)Oc1ccc(-c2cnc(N)c(C(=O)N[C@@H](C)c3cc4cccc(Cl)c4c(=O)n3-c3ccccc3)n2)cc1Cl [Compound 88] | 1000 to 10000 | > 10000 | > 10000 | > 10000 | 1000 to 10000 | > 10000
C[C@H](NC(=O)c1nccnc1N)c1cc2cccc(Cl)c2c(=O)n1-c1ccc(F)cc1 [Compound 19] | < 100 | 100 to 1000 | > 10000 | 100 to 1000 | 100 to 1000 | < 100
C[C@H](NC(=O)c1nc(-c2cccc(S(=O)(=O)N3CCCC3)c2)cnc1N)c1cc2cccc(Cl)c2c(=O)n1-c1ccccc1 [Compound 92] | 1000 to 10000 | 1000 to 10000 | > 10000 | 1000 to 10000 | 1000 to 10000 | 1000 to 10000
CC(C)Oc1ccc(-c2cnc(N)c(C(=O)N[C@@H](C)c3cc4cccc(Cl)c4c(=O)n3-c3ccccc3)n2)cc1 [Compound 106] | 100 to 1000 | > 10000 | > 10000 | > 10000 | 1000 to 10000 | > 10000
CC(C)NS(=O)(=O)c1cccc(-c2cnc(N)c(C(=O)N[C@@H](C)c3cc4cccc(Cl)c4c(=O)n3-c3ccccc3)n2)c1 [Compound 97] | < 100 | 1000 to 10000 | 1000 to 10000 | 100 to 1000 | 100 to 1000 | < 100
COc1ccc(-c2cnc(N)c(C(=O)N[C@@H](C)c3cc4cccc(Cl)c4c(=O)n3-c3ccccc3)n2)cc1NS(C)(=O)=O [Compound 101] | < 100 | 1000 to 10000 | 100 to 1000 | 100 to 1000 | < 100 | < 100
COc1ncc(-c2cccc3cc([C@H](C)NC(=O)c4c(N)nn5cccnc45)n(-c4ccccc4)c(=O)c23)cn1 [Compound 128] | < 100 | 1000 to 10000 | 1000 to 10000 | 1000 to 10000 | 100 to 1000 | < 100
C[C@H](NC(=O)c1nc(-c2cccc(NS(=O)(=O)C3CC3)c2)cnc1N)c1cc2cccc(Cl)c2c(=O)n1-c1ccccc1 [Compound 102] | < 100 | 1000 to 10000 | 1000 to 10000 | 100 to 1000 | < 100 | < 100
COc1cc(-c2cccc3cc([C@H](C)NC(=O)c4c(N)nn5cccnc45)n(-c4ccccc4)c(=O)c23)ccn1 [Compound 116] | < 100 | 1000 to 10000 | 1000 to 10000 | 1000 to 10000 | 100 to 1000 | < 100
CC(C)Oc1ccc(-c2cnc(N)c(C(=O)N[C@@H](C)c3cc4cccc(Cl)c4c(=O)n3-c3ccccc3)n2)cc1F [Compound 87] | 100 to 1000 | 1000 to 10000 | 1000 to 10000 | > 10000 | 100 to 1000 | 1000 to 10000
C[C@H](NC(=O)c1c(N)nn2cccnc12)c1cc2cccc(-c3ccncc3)c2c(=O)n1-c1ccccc1 [Compound 117] | < 100 | 1000 to 10000 | 1000 to 10000 | > 10000 | 100 to 1000 | < 100
C[C@H](NC(=O)c1c(N)nn2cccnc12)c1cc2ccccc2c(=O)n1-c1ccccc1 [Compound 133] | < 100 | 1000 to 10000 | > 10000 | 1000 to 10000 | 100 to 1000 | 100 to 1000
C[C@H](NC(=O)c1nc(-c2ccc(NS(C)(=O)=O)cc2)cnc1N)c1cc2cccc(Cl)c2c(=O)n1-c1ccccc1 [Compound 103] | 100 to 1000 | > 10000 | > 10000 | > 10000 | 1000 to 10000 | 1000 to 10000

The next lines start with the values.

IC50 (Raw264.7 p110 γ) [nM] | IC50 (PI3K δ) [nM] | IC50 (PI3K α) [nM] | IC50 (PI3K β) [nM] | IC50 (PI3K γ) [nM] | IC50 (RAJI p110 δ) [nM] | SMILES
< 100 | 100 to 1000 | 100 to 1000 | 1000 to 10000 | < 100 | < 100 | COc1cc(-c2cccc3nc([C@H](C)NC(=O)c4c(N)nn5cccnc45)n(-c4ccccc4)c(=O)c23)ccn1 [Compound 144]
100 to 1000 | 100 to 1000 | 1000 to 10000 | 1000 to 10000 | < 100 | 1000 to 10000 | C[C@H](NC(=O)c1c(N)nn2cccnc12)c1cc2cccc(C#CCNC(=O)C3CC(=O)CC(=O)C3)c2c(=O)n1-c1ccccc1 [Compound 156]
< 100 | 1000 to 10000 | 1000 to 10000 | 1000 to 10000 | 100 to 1000 | 100 to 1000 | C[C@H](NC(=O)c1c(N)nn2cccnc12)c1cc2cccc(C#CCNS(C)(=O)=O)c2c(=O)n1-c1ccccc1 [Compound 187]
< 100 | 1000 to 10000 | 1000 to 10000 | 1000 to 10000 | 100 to 1000 | < 100 | C[C@H](NC(=O)c1c(N)nn2cccnc12)c1cc2cccc(C#CCNC(=O)C3CCCCC3)c2c(=O)n1-c1ccccc1 [Compound 159]
< 100 | 100 to 1000 | 1000 to 10000 | < 100 | 100 to 1000 | < 100 | C=CCn1c([C@H](C)NC(=O)c2c(N)nn3cccnc23)cc2cccc(Cl)c2c1=O [Compound 235]
< 100 | 100 to 1000 | < 100 | < 100 | < 100 | < 100 | C[C@H](NC(=O)c1nc(-c2cccc(NS(C)(=O)=O)c2)c(N)nc1N)c1cc2cccc(Cl)c2c(=O)n1-c1ccccc1 [Compound 169]
< 100 | 1000 to 10000 | 1000 to 10000 | > 10000 | 1000 to 10000 | < 100 | COc1cc(-c2cccc3cc([C@H](C)NC(=O)c4c(N)nn5cccnc45)n(C)c(=O)c23)ccn1 [Compound 220]
< 100 | 1000 to 10000 | 1000 to 10000 | 1000 to 10000 | < 100 | < 100 | CC#Cc1cccc2cc([C@H](C)NC(=O)c3c(N)nn4cccnc34)n(-c3ccccc3)c(=O)c12 [Compound 167]
< 100 | 1000 to 10000 | 1000 to 10000 | 1000 to 10000 | < 100 | < 100 | C[C@H](NC(=O)c1c(N)nn2cccnc12)c1cc2cccc(C#CCNC(=O)[C@H]3CCC(=O)O3)c2c(=O)n1-c1ccccc1 [Compound 158]
< 100 | 1000 to 10000 | > 10000 | > 10000 | 1000 to 10000 | 100 to 1000 | COc1cc(-c2cccc3cc([C@H](C)NC(=O)c4ncc(C)nc4N)n(-c4ccccc4)c(=O)c23)ccn1 [Compound 139]
< 100 | 100 to 1000 | 1000 to 10000 | 1000 to 10000 | < 100 | < 100 | C=CC(=O)NCC#Cc1cccc2cc([C@H](C)NC(=O)c3c(N)nn4cccnc34)n(-c3ccccc3)c(=O)c12 [Compound 155]
100 to 1000 | > 10000 | > 10000 | > 10000 | 1000 to 10000 | 1000 to 10000 | C[C@H](NC(=O)c1c(N)nn2cccnc12)c1cc2cccc(N(C)C)c2c(=O)n1-c1ccccc1 [Compound 180]
< 100 | 1000 to 10000 | > 10000 | > 10000 | 100 to 1000 | < 100 | C[C@H](NC(=O)c1c(N)nn2cccnc12)c1cc2cccc(-c3cnn(C)c3)c2c(=O)n1-c1ccccc1 [Compound 222]
< 100 | 1000 to 10000 | 1000 to 10000 | > 10000 | 100 to 1000 | 100 to 1000 | C[C@H](NC(=O)c1c(N)nn2cccnc12)c1cc2cccc(-c3ccn[nH]3)c2c(=O)n1-c1ccccc1 [Compound 221]
